From patent US12150447B2, “Plant growth regulator” (University of Washington, priority 2017, dated 2024)

Columns and labels:
[1] = molecular target: T1, mutant auxin receptor (TIR1 F79G) (Arabidopsis thaliana, UniProt Q570C0, F79G); assay: Evaluation of binding to auxin receptor (yeast two-hybrid assay), mutant TIR1 F79G; conditions: yeast EGY48, LacZ reporter, X-gal, 30° C. for 3 days; TIR1 F79G with AUX/IAA protein
T1 construct: expressed in transfected cells; host or cells: Saccharomyces cerevisiae strain EGY48
T1 sequence (Q570C0 whole entry F79G, one chain of several): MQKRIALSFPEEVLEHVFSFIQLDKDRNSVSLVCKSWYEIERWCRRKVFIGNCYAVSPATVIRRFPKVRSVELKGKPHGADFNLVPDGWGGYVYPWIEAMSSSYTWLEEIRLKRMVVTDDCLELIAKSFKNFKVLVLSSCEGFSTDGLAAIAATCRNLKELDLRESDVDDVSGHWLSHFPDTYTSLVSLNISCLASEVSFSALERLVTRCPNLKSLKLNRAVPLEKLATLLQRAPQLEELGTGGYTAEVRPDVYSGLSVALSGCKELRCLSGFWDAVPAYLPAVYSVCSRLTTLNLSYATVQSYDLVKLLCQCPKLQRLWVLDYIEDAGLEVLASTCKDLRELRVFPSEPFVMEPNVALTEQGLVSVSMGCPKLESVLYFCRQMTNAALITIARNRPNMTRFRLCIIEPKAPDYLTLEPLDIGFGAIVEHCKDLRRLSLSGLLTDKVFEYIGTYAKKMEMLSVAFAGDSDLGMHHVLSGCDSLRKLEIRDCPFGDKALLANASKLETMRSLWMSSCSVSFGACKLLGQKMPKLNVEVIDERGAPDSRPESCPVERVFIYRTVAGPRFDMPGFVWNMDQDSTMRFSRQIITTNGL
Text: (§1) Test Example 1: Evaluation of Binding to Auxin Receptor (Yeast Two-Hybrid Assay
(§2) Specifically, the inventors set up the assay in the following manner.
Yeast strain EGY48 was transformed into a plasmid (pSH18-34) containing a LacZ expression cassette (LexA-operon: LacZ reporter) that is transcriptionally regulated by the LexA-operon, a plasmid derived from pGLex313 containing an expression cassette of LexA-DNA-binding domain fusion protein A (the wild-type auxin receptor: SEQ ID NO. 1, or mutant auxin receptor (TIR1 F79G) where the amino acid residue 79 (phenylalanine) in the wild-type is mutated to a glycine: SEQ ID NO. 2), and a plasmid derived from pJG4-5 containing an expression cassette of B42 transcription activator fusion protein B (AUX/IAA protein: SEQ ID NO: 3). The transformant was cultured at 30° C. on an agar plate made of yeast growth medium (minimal SD base and -His/-Trp/-Ura dropout supplement). The colonies were picked up and incubated overnight in liquid SD/-His/-Trp/-Ura medium at 30° C. Afterwards, the medium was replaced with a liquid medium composed of minimal SD/Gal/Raf base, -His/-Trp/-Ura dropout supplement, 50 mM Na-phosphate buffer (pH 7.0), […] X-gal, and various concentrations of test compounds. After incubation at 30° C. for 3 days, the medium containing yeast was transferred to a white 96-well plate (flat bottom) and observed. The lower the concentration of the test compound when blue color appears, the higher the binding between the test compound and the auxin receptor (wild type or mutant) is. Conversely, higher the concentration of test compound when the blue color appears for the first time, the lower the binding between the test compound and the auxin receptor (wild type or mutant).
(§3) In Table 1, the concentration of “wt TIR” indicates the minimum concentration of the test compound in which the well turns blue when the wild type auxin receptor is used, whereas the concentration of “mut” indicates the minimum concentration of the test compound in which the well turns blue when the mutant auxin receptor (TIR1 F79G) is used.

[2] = molecular target: T2, wild-type auxin receptor (TIR1) (Arabidopsis thaliana, UniProt Q570C0); assay: Evaluation of binding to auxin receptor (yeast two-hybrid assay), wild-type receptor; conditions: yeast EGY48, LacZ reporter, X-gal, 30° C. for 3 days; wild type auxin receptor with AUX/IAA protein
T2 construct: expressed in transfected cells; host or cells: Saccharomyces cerevisiae strain EGY48
T2 sequence (Q570C0 1-594): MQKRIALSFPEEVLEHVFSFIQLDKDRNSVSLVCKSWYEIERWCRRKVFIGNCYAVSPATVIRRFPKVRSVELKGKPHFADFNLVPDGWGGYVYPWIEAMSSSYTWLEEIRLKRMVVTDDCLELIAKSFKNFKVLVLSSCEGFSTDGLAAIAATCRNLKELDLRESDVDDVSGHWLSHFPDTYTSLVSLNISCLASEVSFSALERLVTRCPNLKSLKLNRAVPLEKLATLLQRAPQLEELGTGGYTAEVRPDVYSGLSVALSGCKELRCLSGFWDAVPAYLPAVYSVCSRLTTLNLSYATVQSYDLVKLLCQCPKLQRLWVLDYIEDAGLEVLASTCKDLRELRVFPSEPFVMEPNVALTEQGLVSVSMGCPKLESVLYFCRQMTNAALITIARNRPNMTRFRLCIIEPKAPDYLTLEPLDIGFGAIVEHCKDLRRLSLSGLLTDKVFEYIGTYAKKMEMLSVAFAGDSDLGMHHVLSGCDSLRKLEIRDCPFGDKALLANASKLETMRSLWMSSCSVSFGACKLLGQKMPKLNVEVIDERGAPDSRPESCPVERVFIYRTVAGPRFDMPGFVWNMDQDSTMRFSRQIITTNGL
T2 sequence (Q38822 1-93 partner limits assumed): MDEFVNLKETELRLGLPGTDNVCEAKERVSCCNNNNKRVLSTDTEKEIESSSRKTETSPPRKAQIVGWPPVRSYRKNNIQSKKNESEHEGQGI
Experimental: as §1, §2
The transformant was cultured at 30° C. on an agar plate made of yeast growth medium (minimal SD base and -His/-Trp/-Ura dropout supplement). The colonies were picked up and incubated overnight in liquid SD/-His/-Trp/-Ura medium at 30° C. Afterwards, the medium was replaced with a liquid medium composed of minimal SD/Gal/Raf base, -His/-Trp/-Ura dropout supplement, 50 mM Na-phosphate buffer (pH 7.0), […] X-gal, and various concentrations of test compounds. After incubation at 30° C. for 3 days, the medium containing yeast was transferred to a white 96-well plate (flat bottom) and observed.
as §3

Row | Structure (SMILES) | mut TIR: minimum concentration of the test compound in which the well turns blue [1] [µM] | wt TIR: minimum concentration of the test compound in which the well turns blue [2] [µM]
1 | O=C(O)Cc1c[nH]c2ccc(-c3ccc4ccccc4c3)cc12 [Example 27D, 5-(2-naphthyl)-indole-3-acetic acid] | 0.1 | 10
2 | Cc1cc(-c2ccc3[nH]cc(CC(=O)O)c3c2)ccc1F [MK-213, 2-(5-(4-fluoro-3-methylphenyl)-1H-indol-3-yl)acetic acid] | 0.1 | 10
3 | O=C(O)Cc1c[nH]c2cc(-c3cccc(Oc4ccccc4)c3)ccc12 [MK-248, 2-(6-(3-phenoxyphenyl)-1H-indol-3-yl)acetic acid] | 0.1 | 10
4 | O=C(O)Cc1c[nH]c2ccc(-c3ccc4c(c3)OCO4)cc12 [MK-209, 2-(5-(benzo[d][1,3]dioxol-5-yl)-1H-indol-3-yl) acetic acid] | 0.1 | 10
5 | Cc1cc(C)cc(-c2ccc3[nH]cc(CC(=O)O)c3c2)c1 [MK-379, 2-(5-(3,5-dimethylphenyl)-1H-indol-3-yl)acetic acid] | 1 | 100
6 | O=C(O)Cc1c[nH]c2ccc(-c3ccccc3)cc12 [Example 42A, 5-(2-Phenyl)-indole-3-acetic acid] | 0.01 | 1
7 | CCCCOc1ccc2[nH]cc(CC(=O)O)c2c1 [RY-215, 2-(5-(butyloxy)-1H-indol-3-yl)acetic acid, reference compound] | 0.1 | 10
8 | CC(C)(C)c1ccc(-c2ccc3[nH]cc(CC(=O)O)c3c2)cc1 [MK-198, 2-(5-(4-(tert-butyl)phenyl)-1H-indol-3-yl) acetic acid] | 10 | 100
9 | Cc1ccc(Cl)cc1-c1ccc2[nH]cc(CC(=O)O)c2c1 [MK-309, 2-(5-(5-chloro-2-methylphenyl)-1H-indol-3-yl)acetic acid] | 10 | 100
10 | COc1ccccc1-c1ccc2[nH]cc(CC(=O)O)c2c1 [Example 27A, 5-(2-methoxyphenyl)-indole-3-acetic acid] | 10 | 100
11 | Cc1ccc(COc2ccc3[nH]cc(CC(=O)O)c3c2)cc1 [MK-350, 2-(5-((4-methylbenzyl)oxy)-1H-indol-3-yl)acetic acid] | 100 | >100
12 | Cc1ccccc1-c1ccc2[nH]cc(CC(=O)O)c2c1 [MK-189, 2-(5-(o-tolyl)-1H-indol-3-yl)acetic acid] | 0.1 | 10
13 | O=C(O)Cc1c[nH]c2cc(-c3ccccc3-c3ccccc3)ccc12 [MK-232, 2-(6-([1,1′-biphenyl]-2-yl)-1H-indol-3-yl)acetic acid] | 10 | 100
14 | O=C(O)Cc1c[nH]c2ccc(-c3ccc(F)c(Cl)c3)cc12 [MK-255, 2-(5-(3-chloro-4-fluorophenyl)-1H-indol-3-yl)acetic acid] | 1 | 100
15 | COc1ccc(-c2ccc3[nH]cc(CC(=O)O)c3c2)cc1C [MK-214, 2-(5-(4-methoxy-3-methylphenyl)-1H-indol-3-yl)acetic acid] | 10 | 100
16 | CCC(C)COc1ccc2[nH]cc(CC(=O)O)c2c1 (stereo not drawn) [MK-322, 2-(5-(2-methylbutoxy)-1H-indol-3-yl)acetic acid] | 0.1 | 10
17 | CCCCCCCOc1ccc2[nH]cc(CC(=O)O)c2c1 [MK-323, 2-(5-(heptyloxy)-1H-indol-3-yl)acetic acid] | 10 | 100
18 | O=C(O)Cc1c[nH]c2cc(-c3ccc4c(c3)OCO4)ccc12 [MK-247, 2-(6-(benzo[d][1,3]dioxol-5-yl)-1H-indol-3-yl)acetic acid] | 0.1 | 10
19 | Cc1ccc(-c2ccc3[nH]cc(CC(=O)O)c3c2)cc1C [MK-230, 2-(5-(3,4-dimethylphenyl)-1H-indol-3-yl)acetic acid] | 0.1 | 10
20 | CCOc1cccc(-c2ccc3[nH]cc(CC(=O)O)c3c2)c1 [MK-211, 2-(5-(3-ethoxyphenyl)-1H-indol-3-yl)acetic acid] | 10 | 100
21 | COc1cccc(-c2ccc3[nH]cc(CC(=O)O)c3c2)c1 [Example 27B, 5-(3-methoxyphenyl)-indole-3-acetic acid] | 1 | 100
22 | O=C(O)Cc1c[nH]c2ccc(OCC3CCCCC3)cc12 [MK-333, 2-(5-(cyclohexylmethoxy)-1H-indol-3-yl)acetic acid] | 0.1 | 100
23 | Cc1ccc(Cl)c(-c2ccc3[nH]cc(CC(=O)O)c3c2)c1 [MK-307, 2-(5-(2-chloro-5-methylphenyl)-1H-indol-3-yl)acetic acid] | 10 | >100
24 | O=C(O)Cc1c[nH]c2ccc(-c3cc4ccccc4s3)cc12 [Compound 14, 2-(5-(Benzo[b]thiophen-2-yl)-1H-indol-3-yl)acetic acid] | 0.01 | >1
